Laboratory results reported in patent US8815931B2, “Oral formulations for tetrapyrrole derivatives” (Biolitec Pharma Marketing Ltd, priority 2009, dated 2014).
Where two headings read alike, the source gives them in different places.

Experiments:
bacteria cells = test: Dark toxicity towards bacteria cells; assay type: cell-based; settings: 10 μM, no light
[1] = cited from earlier work; for Formation of metabolites in the body: in vivo

Row | SMILES | Dark toxicity towards bacteria cells (bacteria cells) | Formation of metabolites in the body [1] | Formation of metabolites in the body ([1]; listed as Temoporfin) | Effect of lipoprotein levels and cholesterol metabolism on pharmacokinetics in plasma ([1]; plasma)
1 | CCCCCCc1c2nc(c(-c3ccc(C(=O)O)cc3)c3ccc([nH]3)c(-c3ccc(C(=O)O)cc3)c3nc(c(CCCCCC)c4ccc1[nH]4)C(O)C3O)C=C2 (stereo not shown) [BLC 6066, 2,3-Dihydro-2,3-dihydroxy-15,20-dihexyl-5,10-bis(4-carboxy-phenyl)porphyrin] | strong dark toxicity |  |  | 
2 | Oc1cccc(-c2c3nc(c(-c4cccc(O)c4)c4ccc([nH]4)c(-c4cccc(O)c4)c4nc(c(-c5cccc(O)c5)c5ccc2[nH]5)CC4)C=C3)c1 [mTHPC, m-tetrahydroxyphenylchlorin] |  | does not form metabolites | no known enzyme system in the mammalian body which can metabolize Temoporfin | neither lipoprotein levels nor cholesterol metabolism affects the pharmacokinetics
